Assay results as given in patent US20260034123A1 (Cedilla Therapeutics, Inc., priority 2022, published 2026).

Key:
CDK2/Cyclin E1 = CDK2/Cyclin E1 (Homo sapiens, UniProt P24941); experiment: ADP-Glo Luminescent Kinase Assay (CDK2/E1-37C); type: biochemical; conditions: 0.18 nM CDK2/Cyclin E1, 100 μM ATP, Histone H1, 37° C.; read-out: ADPGLO (CDK2/E1-37C): IC50
How it was run: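 Activated CDK2/Cyclin E1 (0.18 nM final) preincubated with compound 60 min at 37 °C, then reacted with 100 μM ATP and Histone H1 ([…]) for 90 min at 37 °C in HEPES pH 7.5 buffer. ADP-Glo luminescence normalized to % activity; IC50 from four-parameter fit.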

Kuramochi cells RB-WT = experiment: IncuCyte Kuramochi cell proliferation assay, RB-WT; type: cell-based; conditions: 72 hours, cell count
How it was run: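 mApple-H2B-labelled Kuramochi cells were treated with a 10-point, half-log series (top 20 µM) and imaged at 0 and 72 h. Fluorescent nuclei were counted, and the 0–72 h fold change was normalized to DMSO wells. GI50 came from dose-response fits.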

Kuramochi cells RB-KO = experiment: IncuCyte Kuramochi cell proliferation assay, RB-KO; type: cell-based; conditions: 72 hours, cell count, batch mean
Method: IncuCyte® assay was used to measure the effect of disclosed compounds on cell proliferation. Fluorescent microscopy images of cells were taken immediately after compound treatment and 72 hours later. Image analysis software was used to obtain cell counts as a function of compound concentration. Kuramochi cells labeled with mApple-H2B were seeded on 384-well assay-ready plates. Plates were placed in an IncuCyte® (Sartorius) and scanned at 0 and 72 hours. IncuCyte® software was used to count the number of fluorescent nuclei in each well. The fold change in cell count from 0 to 72 hours in wells treated with increasing compounds concentrations (10 pts, 1/2 log dilution, 20 µM top concentration) was normalized to DMSO control wells. The normalized cell counts were fit with dose response curves and a GI50 was calculated.

Row | IC50 (CDK2/Cyclin E1) [µM] | Compound | IC50 (Kuramochi cells RB-WT) [µM] | IC50 (Kuramochi cells RB-KO) [µM]
1 | ≤ 0.5 | CC(C)(C(=O)N1CC2(CN(C(=O)c3cnn(Cc4ccc(F)cc4)c3)C[C@H]2COCc2cccc(C3CCC(C(F)(F)F)CC3)c2CC(=O)O)C1)C(F)(F)F (stereo partly drawn) [I′-23, (S)-2-(2-(((6-(1-(4-fluorobenzyl)-1H-pyrazole-4-carbonyl)-2-(3,3,3-trifluoro-2,2-dimethylpropanoyl)-2,6-diazaspiro[3.4]octan-8-yl)methoxy)methyl)-6-(4-(trifluoromethyl)cyclohexyl)phenyl)acetic acid] | ≤ 0.5 | > 10
2 | ≤ 0.5 | CC(C)(C(=O)N1CC2(CN(C(=O)c3cnn(Cc4ccc(F)cc4)c3)C[C@H]2COCc2cccc(C3CCC(F)(F)CC3)c2-c2nn[nH]n2)C1)C(F)(F)F [I′-24] | 0.5 to 5 | > 10
3 | ≤ 0.5 | CC1(C)C[C@@H]1C(=O)N1CC2(CN(C(=O)c3cnn(Cc4ccc(F)cc4)c3)C[C@H]2COCc2cccc(C3CCC(F)(F)CC3)c2C(=O)NCCN2CCOCC2)C1 [I′-25, 2-(4,4-difluorocyclohexyl)-6-((((S)-2-((S)-2,2-dimethylcyclopropane-1-carbonyl)-6-(1-(4-fluorobenzyl)-1H-pyrazole-4-carbonyl)-2,6-diazaspiro[3.4]octan-8-yl)methoxy)methyl)-N-(2-morpholinoethyl)benzamide] | > 10 | > 10
4 | ≤ 0.5 | CC(C)(C(=O)N1CC2(CN(C(=O)c3cnn(Cc4ccc(F)cc4)c3)C[C@H]2COCc2cccc(-c3csc(C(F)(F)F)c3)c2C(=O)O)C1)C(F)(F)F [I′-26, (S)-2-(((6-(1-(4-fluorobenzyl)-1H-pyrazole-4-carbonyl)-2-(3,3,3-trifluoro-2,2-dimethylpropanoyl)-2,6-diazaspiro[3.4]octan-8-yl)methoxy)methyl)-6-(5-(trifluoromethyl)thiophen-3-yl)benzoic acid] | ≤ 0.5 | > 10
5 | ≤ 0.5 | CC(C)(C(=O)N1CC2(CN(C(=O)c3cnn(Cc4ccc(F)cc4)c3)C[C@H]2COCc2cccc(-c3cccc(C(F)(F)F)c3)c2C(=O)O)C1)C(F)(F)F [I′-27, (S)-3-(((6-(1-(4-fluorobenzyl)-1H-pyrazole-4-carbonyl)-2-(3,3,3-trifluoro-2,2-dimethylpropanoyl)-2,6-diazaspiro[3.4]octan-8-yl)methoxy)methyl)-3′-(trifluoromethyl)-[1,1′-biphenyl]-2-carboxylic acid] | 5 to 10 | > 10
6 | ≤ 0.5 | CC(C)(C(=O)N1CC2(CN(C(=O)c3cnn(Cc4ccc(F)cc4)c3)C[C@H]2COCc2cccc(-c3cccc(F)c3)c2C(=O)O)C1)C(F)(F)F [I′-28] | 5 to 10 | > 10
7 | ≤ 0.5 | O=C(O)c1c(CCC2CN(C(=O)c3cnn(Cc4ccc(F)cc4)c3)CC23CN(C(=O)C2(C(F)(F)F)CC2)C3)cccc1C1CCC(F)(F)CC1 (stereo not drawn) [I′-29] | > 10 | > 10
8 | ≤ 0.5 | CC(C)(C(=O)N1CC2(CN(C(=O)c3cnn(Cc4ccc(F)cc4)c3)C[C@H]2COCc2cccc(C3CCC(F)(F)CC3)c2C(=O)OCCN2CCOCC2)C1)C(F)(F)F [I′-31] | 0.5 to 5 | 5 to 10
9 | ≤ 0.5 | O=C(O)c1c(OCCC2CN(C(=O)c3cnn(Cc4ccc(F)cc4)c3)CC23CN(C(=O)C2(C(F)(F)F)CC2)C3)cccc1C1CCC(F)(F)CC1 (stereo not drawn) [I′-32, 2-(4,4-difluorocyclohexyl)-6-(2-(6-(1-(4-fluorobenzyl)-1H-pyrazole-4-carbonyl)-2-(1-(trifluoromethyl)cyclopropane-1-carbonyl)-2,6-diazaspiro[3.4]octan-8-yl)ethoxy)benzoic acid] | ≤ 0.5 | 5 to 10
10 | ≤ 0.5 | NC(=O)c1c(COC[C@@H]2CN(c3cc(F)c(F)c4ncsc34)CC23CN(C(=O)C2(C(F)(F)F)CC2)C3)cccc1C1CCC(F)(F)CC1 [I′-33, 2-(((6-(4,5-difluorobenzo[d]thiazol-7-yl)-2-(1-(trifluoromethyl)cyclopropane-1-carbonyl)-2,6-diazaspiro[3.4]octan-8-yl)methoxy)methyl)-6-(4,4-difluorocyclohexyl)benzamide] | > 10 | > 10
11 | ≤ 0.5 | O=C(O)c1c(COC[C@@H]2CN(c3cc(F)c(F)c4ncsc34)CC23CN(C(=O)C2(C(F)(F)F)CC2)C3)cccc1C1CCC(C(F)(F)F)CC1 (stereo partly drawn) [I′-34, (S)-2-(((6-(4,5-difluorobenzo[d]thiazol-7-yl)-2-(1-(trifluoromethyl)cyclopropane-1-carbonyl)-2,6-diazaspiro[3.4]octan-8-yl)methoxy)methyl)-6-(4-(trifluoromethyl)cyclohexyl)benzoicacid] | ≤ 0.5 | > 10
12 | ≤ 0.5 | CC(C)(C(=O)N1CC2(CN(C(=O)c3cnn(Cc4ccc(F)cc4)c3)C[C@H]2COCc2cccc(C3CCC(F)(F)CC3)c2C#N)C1)C(F)(F)F [I′-35] | 0.5 to 5 | > 10
13 | ≤ 0.5 | CC1(C)C[C@@H]1C(=O)N1CC2(CN(C(=O)c3cnn(Cc4ccc(F)cc4)c3)C[C@H]2COCc2cccc(C3CCC(F)(F)CC3)c2C(=O)OCCN2CCOCC2)C1 [I′-36, 2-morpholinoethyl 2-(4,4-difluorocyclohexyl)-6-((((S)-2-((S)-2,2-dimethylcyclopropane-1-carbonyl)-6-(1-(4-fluorobenzyl)-1H-pyrazole-4-carbonyl)-2,6-diazaspiro[3.4]octan-8-yl)methoxy)methyl)benzoate] | ≤ 0.5 | 0.5 to 5
14 | ≤ 0.5 | CC(C)(C(=O)N1CC2(CN(C(=O)c3cnn(Cc4ccc(F)cc4)c3)C[C@H]2COCc2cccc(C3=CCC(F)(F)CC3)c2C(=O)O)C1)C(F)(F)F [I′-37] | ≤ 0.5 | > 10
15 | ≤ 0.5 | CC(C)(C(=O)N1CC2(CN(C(=O)c3cnn(Cc4ccc(F)cc4)c3)C[C@H]2COCc2cccc(-c3ccc(F)cc3)c2C(=O)O)C1)C(F)(F)F [I′-38] | 5 to 10 | > 10
16 | 0.5 to 5 | CC(C)(C(=O)N1CC2(CN(C(=O)c3cnn(Cc4ccc(F)cc4)c3)C[C@H]2COCc2cccc(-c3ccccc3)c2)C1)C(F)(F)F [I′-39] | > 10 | > 10
17 | 0.5 to 5 | CC(C)(C(=O)N1CC2(CN(C(=O)c3cnn(Cc4ccc(F)cc4)c3)C[C@H]2COCc2cccc(-c3ccccc3C(=O)O)c2)C1)C(F)(F)F [I′-40] | 0.5 to 5 | 5 to 10
18 | > 10 | Cc1cc(N2C[C@@H](COCc3cccc(C4CCC(F)(F)CC4)c3C(=O)O)C3(CN(C(=O)C4(C(F)(F)F)CC4)C3)C2)c2scnc2c1C [I′-41] | 5 to 10 | > 10
19 | ≤ 0.5 | CC1(C)C[C@@H]1C(=O)N1CC2(CN(C(=O)c3cnn(Cc4ccc(F)cc4)c3)C[C@H]2COCc2cccc(C3CCC(F)(F)CC3)c2C#N)C1 [I′-42, 2-(4,4-difluorocyclohexyl)-6-((((S)-2-((S)-2,2-dimethylcyclopropane-1-carbonyl)-6-(1-(4-fluorobenzyl)-1H-pyrazole-4-carbonyl)-2,6-diazaspiro[3.4]octan-8-yl)methoxy)methyl)benzonitrile] | 0.5 to 5 | 0.5 to 5
20 | ≤ 0.5 | CC1(C)C[C@@H]1C(=O)N1CC2(CN(C(=O)c3cnn(Cc4ccc(F)cc4)c3)C[C@H]2COCc2cccc(C3CCC(F)(F)CC3)c2-c2nn[nH]n2)C1 [I′-43, ((S)-8-(((3-(4,4-difluorocyclohexyl)-2-(2H-tetrazol-5-yl)benzyl)oxy)methyl)-2-((S)-2,2-dimethylcyclopropane-1-carbonyl)-2,6-diazaspiro[3.4]octan-6-yl)(1-(4-fluorobenzyl)-1H-pyrazol-4-yl)methanone] | ≤ 0.5 | 5 to 10
21 | ≤ 0.5 | CS(=O)(=O)NC(=O)c1c(COC[C@@H]2CN(C(=O)c3cnn(Cc4ccc(F)cc4)c3)CC23CN(C(=O)C2(C(F)(F)F)CC2)C3)cccc1C1CCC(F)(F)CC1 [I′-44, (S)-2-(4,4-difluorocyclohexyl)-6-(((6-(1-(4-fluorobenzyl)-1H-pyrazole-4-carbonyl)-2-(1-(trifluoromethyl)cyclopropane-1-carbonyl)-2,6-diazaspiro[3.4]octan-8-yl)methoxy)methyl)-N-(methylsulfonyl)benzamide] | 0.5 to 5 | > 10
22 | ≤ 0.5 | CC(C)(C(=O)N1CC2(CN(C(=O)c3cnn(Cc4cc(F)cc(F)c4)c3)C[C@H]2COCc2cccc(C3CCC(F)(F)CC3)c2C(=O)O)C1)C(F)(F)F [I′-45, (S)-2-(((6-(1-(3,5-difluorobenzyl)-1H-pyrazole-4-carbonyl)-2-(3,3,3-trifluoro-2,2-dimethylpropanoyl)-2,6-diazaspiro[3.4]octan-8-yl)methoxy)methyl)-6-(4,4-difluorocyclohexyl)benzoic acid] | 0.5 to 5 | > 10
23 | 0.5 to 5 | O=C(O)c1c(/C=C/CC2CN(C(=O)c3cnn(Cc4ccc(F)cc4)c3)CC23CN(C(=O)C2(C(F)(F)F)CC2)C3)cccc1C1CCC(F)(F)CC1 (stereo not drawn) [I′-46] | 5 to 10 | > 10
